Measured values taken from patent US20140045747A1, “METHODS FOR INCREASING AND MOBILIZING HEMATOPOIETIC STEM CELLS” (Cleveland Biolabs, Inc., priority 2007, published 2014).

Key:
[1] = system: hematopoietic stem and progenitor cells in peripheral blood; test: CBLB612 dose dependence of HSC mobilization, peripheral blood of C57Bl mice (Example 6); assay type: in vivo; conditions: C57Bl/6NHsd mice, average, regimen per group b224: AMD3100 5 mg/kg SC 1 h before euthanasia, G-CSF four daily 0.1 mg/kg SC, 612 1.2 mg/kg SC 72 h
Experimental: (§1) The doses were calculated as intended dose/kg of average weight. The adjustment of a dose was accomplished by adjusting the concentration of an article for injection while keeping the injection volume constant.
(§2) According to Table 9, all groups received a single subcutaneous (SC) injection of 5 mg/kg of AMD3100 one hour before euthanasia. Control group 1 was injected with 5 mg/kg of AMD3100 only. Control group 2 was treated with four daily 0.1 mg/kg SC injections of G-CSF and on the fifth day the mice were injected with AMD3100. Control group 8 consisted of ICR mice and received the same treatment as Control group 2. Study groups 3, 4, 5, and 6 received a single SC injection of CBLB612 at 1.2; 0.4; 0.13; and 0.04 mg/kg doses, respectively, at 72 hours before blood collection. Group 7 received a single SC injection of 1.2 mg/kg CBLB612 at 24 hours before blood collection. Study group 9 was treated with four daily SC injections of 0.1 mg/kg G-CSF, a single SC injection of 1.2 mg/kg CBLB612 at 72 hours before blood collection, and a single SC injection of 5 mg/kg AMD3100 one hour before euthanasia at the fifth day after the first G-CSF injection.

[2] = system: hematopoietic stem and progenitor cells in peripheral blood; test: Kinetics of HSC mobilization after CBLB612, peripheral blood of C57Bl mice (Example 7); assay type: in vivo
Experimental: (§3) The following mobilization of HSC and progenitor cells from the bone marrow to peripheral blood after CBLB612 injection. […] The doses were calculated as intended dose/kg of average weight. The adjustment of a dose was accomplished by adjusting the concentration of an article for injection while keeping the injection volume constant. According to Table 13, with the exception of the PBS control group 8, all groups received a 5 mg/kg dose of AMD3100 one hour before euthanasia. Control group 7 received a 6.5 mg/kg does of AMD3100. Negative control group 8 received a single SC injection of 200 μl PBS one hour before blood collection. Study groups 1-6 received single SC injections of CBLB12 at 2 mg/kg at different time points prior to blood collection. Positive control group 9 received four daily SC injections of 0.1 mg/kg G-CSF.

[3] = system: hematopoietic stem and progenitor cells in bone marrow; test: CBLB612 dose dependence of HSC number in mouse bone marrow (Example 6); assay type: in vivo, C57Bl/6NHsd mice; conditions: average, regimen per group b224: AMD3100 5 mg/kg SC 1 h before euthanasia, G-CSF four daily 0.1 mg/kg SC, 612 1.2 mg/kg SC 72 h
Experimental: as §1, §2

[4] = system: hematopoietic stem and progenitor cells in bone marrow; test: Kinetics of HSC number after CBLB612, bone marrow of C57Bl mice (Example 7); assay type: in vivo
Experimental: as §3

[5] = system: C57/B6 mice irradiated with 9 Gy; test: Survival of lethally irradiated mice transfused with PWBC from treated donor mice (Example 2); assay type: in vivo; conditions: recipients irradiated 9 Gy, transfused with PWBC from donor mice treated with the compound; 5 mice at Day 0
Experimental: Blood transfused from lipopeptide-treated mice is capable of protecting recipient mice from the effects of radiation. […] To control for the effects of CBLB612, a group of mice was injected daily for four consecutive days with 100 μg/kg G-CSF, or with PBS.
Following the last injection, blood was collected from the treated mice by cardiac puncture and combined for each group (i.e., PBS negative controls, G-CSF positive controls, and CBLB612 experimental). Next, peripheral white blood cells (PWBC) were fractionated, and 200 μL of fractionated PWBC were injected into the tail veins of irradiated recipient mice. The amount of transfused PWBC was equivalent to the amount from one mouse.
Mice from the five test groups (i.e., PBS-, G-CSF-, and CBLB612-treated mouse blood transfusions, no transfusion, and bone marrow injection), previously irradiated with 9 Gy (a lethal dose for C57/B6 mice) for 2 h prior to transfusion, were observed and their survival rate assessed following transfusion.

[6] = AMD3100 5 mg/kg SC 1 h before collection
[7] = AMD3100 + 30%: 6.5 mg/kg SC 1 h before collection

`c1cc(CN2CCCNCCNCCCNCC2)ccc1CN1CCCNCCNCCCNCC1` [AMD3100] was tested, and the “7AAD−/LIN−” value [1] was 254725, the KSL [1] was 238 and the “KSL/CD34+” value [1] was 174. For the same molecule, the “KSL/CD34−” value [1] was 72, the “LIN−/kit−/sca1+” value [1] was 40971 and the “LIN−/sca1−/kit+” value [1] was 1104. The “total number of WBC” value [1] was 629.95 10^4/ml, the “7AAD−/LIN− (average number)” value [2, 6] was 421616 and the “KSL (average number)” value [2, 6] was 360. The “KSL/CD34+ (average number)” value [2, 6] was 308, the “KSL/CD34− (average number)” value [2, 6] was 56 and the “LIN−/kit−/sca1+ (average number)” value [2, 6] was 23142. For the same molecule, the “LIN−/sca1−/kit+ (average number)” value [2, 6] was 1932, the “total number of WBC (average)” value [2, 6] was 962.40 10^4/ml and the “7AAD−/LIN− (average number)” value [2, 7] was 302644. The “KSL (average number)” value [2, 7] was 907, the “KSL/CD34+ (average number)” value [2, 7] was 856 and the “KSL/CD34− (average number)” value [2, 7] was 63. For the same molecule, the “LIN−/kit−/sca1+ (average number)” value [2, 7] was 30938, the “LIN−/sca1−/kit+ (average number)” value [2, 7] was 1816 and the “total number of WBC (average)” value [2, 7] was 1111.05 10^4/ml. The “7AAD−/LIN−” value [3] was 2.39 ×10^6, the KSL [3] was 1.37 ×10^4 and the “KSL/CD34+” value [3] was 1.25 ×10^4. The “KSL/CD34−” value [3] was 1.24 ×10^3, the “LIN−/kit−/sca1+” value [3] was 15.74 ×10^4 and the “LIN−/sca1−/kit+” value [3] was 13.26 ×10^4. For the same molecule, the “total number of cells” value [3] was 4.47 10^7, the “7AAD−/LIN− (average number)” value [4, 6] was 2.44 ×10^6 and the “KSL (average number)” value [4, 6] was 17184. The “KSL/CD34+ (average number)” value [4, 6] was 14743, the “KSL/CD34− (average number)” value [4, 6] was 2689 and the “LIN−/kit−/sca1+ (average number)” value [4, 6] was 206061. For the same molecule, the “LIN−/sca1−/kit+ (average number)” value [4, 6] was 163895, the “total number of cells (average)” value [4, 6] was 4.88 10^7 and the “7AAD−/LIN− (average number)” value [4, 7] was 2.26 ×10^6. For the same molecule, the “KSL (average number)” value [4, 7] was 41791, the “KSL/CD34+ (average number)” value [4, 7] was 40873 and the “KSL/CD34− (average number)” value [4, 7] was 1084. The “LIN−/kit−/sca1+ (average number)” value [4, 7] was 148328, the “LIN−/sca1−/kit+ (average number)” value [4, 7] was 281722 and the “total number of cells (average)” value [4, 7] was 3.65 10^7.

B1: G-CSF: granulocyte-colony stimulating factor, a cytokine; positive control (protein, UniProt P09919 31-207, looked up)
Granulocyte …: TPLGPASSLPQSFLLKCLEQVRKIQGDGAALQEKLVSECATYKLCHPEELVLLGHSLGIPWAPLSSCPSQALQLAGCLSQLHSGLFLYQGLLQALEGISPELGPTLDTLQLDVADFATTIWQQMEELGMAPALQPTQGAMPAFASAFQRRAGGVLVASHLQSFLEVSYRVLRHLAQP
B1 was tested, and the “Number of Surviving Mice, Day 21” value [5] was 5, the “Number of Surviving Mice, Day 22” value [5] was 5 and the “Number of Surviving Mice, Day 23” value [5] was 5. The “Number of Surviving Mice, Day 24” value [5] was 5.
